# Assay results as given in patent US12076342B2, “Method for generating progenitor t cells from stem and/or progenitor cells and use of same” (THE GOVERNING COUNCIL OF THE UNIVERSITY OF TORONTO, priority 2016, dated 2024).
# How the values were obtained:
# [1] = tested on: double negative (DN; CD4− CD8−) thymocytes; test: DL4-Fc ligand binding to thymocytes
# Experimental: Progenitor T cell development in the thymus is characterized by four sequential stages commonly referred to as DN1, DN2, DN3 and DP (DN=double negative and DP=double positive for CD4 and CD8 expression). An ideal defined progenitor T cell differentiation assay should aim to support the expansion of DN3 T cells that are exclusively committed to the T lymphoid lineage. […] Conventional in vitro T cell differentiation is carried out on an OP9 stromal feeder layer in serum-containing medium. The obvious first step in developing a defined assay for T cell differentiation is to establish conditions that eliminate the requirements for both serum and feeders. To replace the OP9 feeder layer, DL4-Fc protein was generated and the purity and functionality of the ligand to bind DN T cells and not DP T cells was verified, as these cell types differentially express the Notch-1 receptor (FIGS. 1a-c). […] Cultures were re-fed after four days and analyzed for progenitor T cell surface markers after seven days (FIG. 2a). Parallel cultures were carried out on untreated surfaces (negative control) and OP9-DL4 stromal co-culture (positive control based on which SCF, Flt3L and IL-7 supplementation concentrations were determined^9). […] The level of lineage skewing to non-T cell fates was also quantified in the absence of Notch ligand in order to assess the default cell differentiation supported by all medium types.
# [2] = tested on: human umbilical cord blood-derived CD34+ HSPCs; test: Human CD34+ HSPC progenitor T cell differentiation on coated plates; assay type: cell-based; conditions: serum-free IMDM+BIT
# Experimental: For human HSPC culture, umbilical cord blood samples were collected from consenting donors according to ethically approved procedures at Mount Sinai Hospital. CD34+ cells were isolated from the red blood cell (RBC)-lysed cord blood fraction using the EasySep™ Human CD34 Positive Selection Kit (Stemcell Technologies) according to the manufacturer's instructions. Flow cytometry was performed after every enrichment to ensure CD34 frequencies were greater than 95%. CD34+ HSPCs were cultured for 14 days on DL4 and VCAM-1 coated 96-well plates at higher seeding densities of 12,500 HSPCs/cm^2 (corresponding to 4000 cells/well). One complete medium exchange was performed at day 7 of culture and cells were returned to the same DL4 and VCAM-1 coated plates. For certain experiments, DL4-Fc was coated alone or with RetroNectin® (Takara Shuzo) or fibronectin (Sigma Aldrich) as described in the text. CD34+ cells were cultured in serum-free Iscove modified Dulbecco medium (Gibco) with 20% bovine serum albumin, insulin, and transferrin serum substitute (BIT; Stemcell Technologies), 1% GlutaMAX™ (Gibco) and 1 μg/mL low-density lipoproteins (Calbiochem). The medium was added at 50 μL/well supplemented with 100 ng/mL SCF (R&D Systems, Minneapolis, MN), 100 ng/mL Flt3L (R&D Systems), 100 ng/mL Tpo (R&D Systems) and 100 ng/mL IL-7 (R&D Systems).
# Surface marker staining was performed with conjugated rat anti-mouse antibodies (BD Biosciences, San Jose, CA, Table 1). All samples were analyzed on a FACSCanto™ or FACS LSRFortessa™ flow cytometer (BD Biosciences). At day 7 of culture, cells were lifted off the plate with multiple HF rinses, stained at 1:400 dilution with antibodies against CD45, CD25, CD44, CD90, CD11 b and CD19 for 20 minutes on ice. […] Integrin expression was analyzed using antibodies against α4, β1, and β7 integrin subunits on Sca-1+cKit+ mouse HSPCs and CD34+ human umbilical blood cells. […] Flow data was analyzed and batch processed using FlowJo® software and further analyzed in Python (version 2.7.10).
# [3] = tested on: sorted sca1+ckit+ fetal-liver HSPCs; test: Defined T cell differentiation assay on adsorbed ligand, flow cytometry; assay type: cell-based, mouse
# Experimental: FIG. 2a: Schematic for 2D coated DL4 assay, in which sorted E13.5 sca1+ckit+ fetal-liver HSPCs are seeded on coated DL4 ligand in standard 96-well flat bottom plates at 1000 cells/well density in 200 μl test media containing cytokines 25 ng/mL SCF, 5 ng/mL Flt3L and 1 ng/mL IL7; cells are re-fed on day 4 with fresh media containing cytokines; on day 7, cells are assayed for surface marker expression using flow cytometry.
# Commercially available DL4-Fc was purchased and used for experiments from Sino Biologicals (Cedarlane Labs, Burlington, Ontario, Canada) or manufactured in-house as described below. DL4-Fc was diluted in chilled phosphate-buffered saline (PBS) at 10 μg/mL or […] and 50 μL/well was coated in standard tissue-culture 96-well plates overnight at 4° C. Wells were washed once with PBS prior to seeding cells to remove any unbound ligand from the wells. For certain experiments, wells were also coated overnight with 50 μL/well PBS containing DL4-Fc and VCAM-1-Fc (R&D) or fibronectin (Sigma) at concentrations described herein.
# Sorted sca1+ckit+ HSPCs were cultured at 1000 cells/well (corresponding to 3.1×10^3 cells/cm^2) in DL4-coated 96-well plates in serum-free Iscove modified Dulbecco medium (Gibco, Rockville, MD) with 20% bovine serum albumin, insulin, and transferrin serum substitute (BIT; Stemcell Technologies), 1% GlutaMAX™ (Gibco) and 1 μg/mL low-density lipoproteins (Calbiochem, La Jolla, CA) [IMDM+BIT]. For positive control cultures, OP9 serum medium was used, composed of αMEM medium (Gibco) and 16% FBS (Hyclone™, GE Health). Serum-free αMEM+BIT medium was prepared exactly as IMDM+BIT medium except using αMEM (Gibco) as the base medium. OP9 serum medium, αMEM+BIT or IMDM+BIT serum free medium was added at 200 μL/well supplemented with 25 ng/mL Stem Cell Factor (SCF; R&D Systems, Minneapolis, MN), 5 ng/mL FMS-like Tyrosine Kinase 3 Ligand (Flt3L; R&D Systems) and 1 ng/mL Interleukin-7 (IL-7; R&D Systems) with a 50% medium exchange step at day 4 containing 2-fold concentrated cytokines as described previously^9. Design of Experiment (DOE) in silico modeling was performed using Design-Expert® (v10) using response surface method to investigate the combinatorial desirability of different concentrations of SCF, Flt3L and IL-7 for maximizing DN3 T-cell yield and minimizing the volume of IMDM+BIT medium. After DOE optimization, IMDM+BIT serum-free medium was added at 50 μL/well supplemented with 50 ng/mL SCF (R&D Systems), 10 ng/mL Flt3L (R&D Systems) and 10 ng/mL IL-7 (R&D Systems) unless described otherwise in the text with no medium exchange for the length of the assay. For the candidate factor screening in serum-free IMDM+BIT medium, the following proteins or small molecules were used at the concentrations listed: JAK inhibitor I (50 nM; EMD Millipore), IL-11 (10, 50, and 100 ng/mL; R&D Systems), IL-6 (10, 50, and 100 ng/mL; R&D Systems), IL-6R (100 ng/mL; R&D Systems), Ccl25 (1.5 μg/mL; R&D Systems), IL-7 (50, 100, and 200 ng/mL; R&D Systems), SDF1α (Cxcl12; 200 ng/mL; R&D Systems), and Leukemia Inhibitory Factor (LIF; 0.1, 1, and 10 ng/mL; EMD Millipore).
# Surface marker staining was performed with conjugated rat anti-mouse antibodies (BD Biosciences, San Jose, CA, Table 1). All samples were analyzed on a FACSCanto™ or FACS LSRFortessa™ flow cytometer (BD Biosciences). At day 7 of culture, cells were lifted off the plate with multiple HF rinses, stained at 1:400 dilution with antibodies against CD45, CD25, CD44, CD90, CD11 b and CD19 for 20 minutes on ice. Human progenitor T-cells were stained at 1:100 dilution with antibodies against CD34, CD7, CD5 and CD45RA. Integrin expression was analyzed using antibodies against α4, β1, and β7 integrin subunits on Sca-1+cKit+ mouse HSPCs and CD34+ human umbilical blood cells. […]
substance,measurement,setting,value
DL4: Notch ligand Delta-like-4 extracellular domain fused to the Fc region of human IgG1,binding to DN vs. DP thymocytes,[1],"binding double negative (DN; CD4− CD8−) and not double positive (DP, CD4+CD8+) thymocytes"
same,generation of CD7+CD34+ cells,[2]; DL4 alone,can generate CD7+CD34+ cells
same,generation of later stage progenitor T cells from CD34+ HSPCs,"[2]; 9 or 14 days, matrix proteins in conjunction with DL4",insufficient to drive these progenitor cells to later stages of T cell development
same,DN3 frequency at 20 μg/mL immobilized ligand,"[3]; 20 μg/mL immobilized, no soluble ligand, day 7",generated DN3 cells at equivalent frequencies as in the 10 μg/mL coated DL4 control
same,minimum concentration of adsorbed DL4 that supported DN3 cell generation,"[3]; IMDM+BIT serum-free medium, 7 days of culture",7.5 µg/mL
